According to patent US20080103198A1, “METHODS FOR TREATMENT OF COCHLEAR AND VESTIBULAR DISORDERS” (priority 2006, published 2008):
Counter-ions that a name gives are not always drawn.

Assays:
[1] = system: transient cerebral ischemia (MCAO); experiment: Transient cerebral ischemia middle cerebral artery occlusion (MCAO) rat model; assay type: in vivo; conditions: MK 801 3 mg/kg i.p.; N=12
Method: The enantiomer of Formula 7 was investigated in the transient cerebral ischemia middle cerebral artery occlusion (MCAO) rat model (as described in Nagasawa H. and Kogure K., Stroke, 1989, 20, 1037; and, Zea Longa E., Weinstein P. R., Carlson S, and Cummins R., Stroke, 1989, 20, 84) using male Wistar rats at 10 and 100 mg/kg (i.v.). MK 801 (Dizocilpine maleate; CAS Registry number 77086-22-7, a commercially available neuroprotectant compound) was used as a positive control (3 mg/kg, i.p.).
Rats (n=12) were randomly allocated to one of four experimental groups and were anesthetized. Blood flow from the internal carotid artery, anterior cerebral artery and posterior cerebral artery into the middle cerebral artery was blocked by this procedure. One hour after blockage, animals were treated over a 1 hour period with vehicle (administered i.v. over the one hour period), control (administered as a single i.p. dose at the start of the one hour period) and two doses of the enantiomer of Formula 7 (administered i.v. over the one hour period). Two hours after blockage, reperfusion was performed.
The animals were sacrificed and […] coronal sections of each brain were prepared. One in every forty sections (i.e. every […]) from the front to the occipital cortex was used to quantify the extent of the cerebral lesion. Slides were prepared using sections stained (according to the Nissl procedure) with cresyl violet and were examined under a light microscope.
Regional ischemic surface areas in the coronal sections of individual rats were determined according to the presence of cells with morphological changes. The areas of neuronal injury or infarction were measured and then added. The cortex and striatum volume were calculated for each animal (total ischemic surface area×0.8 mm (thickness)).
The mean volumes (.+−.S.E.M.) for each animal randomly assigned to the four experimental groups were compared using one-way ANOVA (one way ANOVA is a statistical method which compares 3 or more unmatched groups) followed by Dunnett's t-test (both methods incorporated in Statview 512+software, BarinPower, Calabasas, Calif., USA).

PC12 cells = experiment: PC12 cell serum withdrawal model (MTS assay); assay type: cell-based; conditions: control cells = 100%
From the text: Serum withdrawal is a cytotoxic environmental challenge that results in cell death in cultured cell lines as well as in primary cells of various tissue origins, including nerve cells. In particular, pheochromocytoma (PC) 12 cells have been widely employed as an in vitro neuronal cell model for a wide variety of neurodegenerative and cell death related disorders (Muriel, et al, Mitochondrial free calcium levels (Rhod-2 fluorescence) and ultrastructural alterations in neuronally differentiated PC12 cells during ceramide-dependent cell death, J. Comp. Neurol., 2000, 426(2), 297-315; Dermitzaki, et al, Opioids transiently prevent activation of apoptotic mechanisms following short periods of serum withdrawal, J. Neurochem., 2000, 74(3), 960-969; Carlile, et al, Reduced apoptosis after nerve growth factor and serum withdrawal: conversion of tetrameric glyceraldehyde-3-phosphate dehydrogenase to a dimer, Mol. Pharmacol., 2000, 57(1), 2-12).
PC12 cells were cultured in sterile media (RPMI 1640) supplemented with 10% heat-inactivated horse serum and 5% fetal bovine serum (FBS). The culture medium also contained Penicillin-Streptomycin-Neomycin antibiotic (50µg, 50µg, 100µg, respectively). Medium was exchanged every other day and the cells were passed in log phase near confluence.
The control cells were cultured in regular media without any treatment. An enantiomer of Formula 7 or Formula 8 (10µM) was mixed well in the medium and then applied to the cells. For the 2 day assay, an enantiomer of Formula 7 or Formula 8 (10µM) was only applied to the cells once at the time of serum withdrawal. For the 7 day assay, an enantiomer of Formula 7 or Formula 8 (10. mu.M) was applied to the cells at the time of serum withdrawal and every 48 hr thereafter when cells were changed with fresh new serum-free medium. In the serum withdrawal group, the cells were cultured in serum-free medium with no additional enantiomer of Formula 7 or Formula 8. Cell survival was determined by the 3-(4,5-dimethylthiazol-2-yl)-5-(3-carboxy-methoxyphenyl)-2-(4-sulfophenyl)-2H-tetrazolium inner salt (MTS) assay at 2 or 7 days after serum withdrawal.
At the end of the experiment, cells were washed with fresh medium and incubated with MTS solution in a humidified 37° C. with 5% CO2 incubator for 1.5 hr. After the incubation period, the cells were immediately analyzed using a Softmax program (Molecular Devices). […] The assay is based on the cellular conversion of the tetrazolium salt, MTS, into a formazan that is soluble in tissue culture medium and measured directly at 490 nm in 96-well assay plates. The absorbance is directly proportional to the number of living cells in culture. The arbitrary absorbance reading in control cells is expressed as 100% survival rate.

Row | SMILES | Mean Infarct Volume ± S.E.M., Cortex Volume [1] | Mean Infarct Volume ± S.E.M., Striatum [1] | Mean Infarct Volume ± S.E.M., Total [1] | 2 Day Survival Rate (PC12 cells; 10 µM applied once at serum withdrawal) | 7 Day Survival Rate (PC12 cells; 10 µM at serum withdrawal and every 48 hr)
1 | C[C@]12N[C@H](Cc3ccccc31)c1ccccc12 [MK 801, Dizocilpine maleate, reference compound] | 95.8 ± 24.5^1 mm^3 | 56.1 ± 5.3^2 mm^3 | 151.9 ± 28.7^1 mm^3 |  | 
2 | NC(=O)OC[C@H](OC(N)=O)c1ccccc1Cl [Formula 8] |  |  |  | 66.4 ± 5.4^1% | 85.2 ± 0.6^2%
